Measured values from ChEMBL document CHEMBL4376815, “The Development Process for Discovery and Clinical Advancement of Modern Antimalarials” (J Med Chem, 2019).

Columns and labels:
Plasmodium cynomolgi [1] = assay: Antimalarial activity against schizont stage Plasmodium cynomolgi infected in primary rhesus monkey hepatocytes; type: functional, organism-based
Plasmodium cynomolgi [2] = assay: Antimalarial activity against hypnozoites stage Plasmodium cynomolgi infected in primary rhesus monkey hepatocytes; type: functional, organism-based
[3] = Inhibition of Plasmodium vivax PI4K
Plasmodium cynomolgi [4] = assay: Antimalarial activity against hypnozoites stage Plasmodium cynomolgi infected in primary rhesus monkey hepatocytes measured on day 5; type: functional, organism-based; conditions: 120 h
Plasmodium falciparum [5] = assay: Antimalarial activity against early stage Plasmodium falciparum gametocytes by luciferase reporter gene assay; type: functional, organism-based
Plasmodium falciparum [6] = assay: Antimalarial activity against late stage Plasmodium falciparum gametocytes by luciferase reporter gene assay; type: functional, organism-based
Plasmodium falciparum [7] = assay: Antimalarial activity against late stage Plasmodium falciparum gametocytes assessed as reduction in gametogenesis exflagellation after 24 hrs; type: functional, organism-based
Plasmodium falciparum [8] = assay: Antimalarial activity against stage 5 Plasmodium falciparum assessed as reduction in oocyst formation in mosquito midgut pretreated 24 hrs before feeding by standard membrane-feeding assay; type: functional, organism-based
Plasmodium falciparum [9] = assay: Antimalarial activity against stage 5 Plasmodium falciparum assessed as reduction in oocyst formation in mosquito midgut at 1 uM after 24 hrs by standard membrane-feeding assay relative to control; type: functional; set-up: scale not given: the % may be the effect or the level left
Plasmodium berghei = assay: Antimalarial activity against Plasmodium berghei infected in mouse assessed reduction in parasitemia; type: functional; set-up: scale not given: the % may be the effect or the level left
Plasmodium falciparum [10] = assay: Antimalarial activity Plasmodium falciparum infected in po dosed SCID mouse assessed as reduction in parasite growth administered daily for 4 consecutive days and measured on day 7 by flow cytometric analysis; type: functional; conditions: 168 h
[11] = Plasma clearance in dog; type: ADME, Canis lupus familiaris
[12] = Plasma clearance in mouse; type: ADME, organism-based
[13] = Plasma clearance in rat; type: ADME
[14] = Volume of distribution in dog; type: ADME, Canis lupus familiaris; conditions: in vivo
[15] = Volume of distribution in mouse; type: ADME, organism-based; conditions: in vivo
[16] = Volume of distribution in rat; type: ADME; conditions: in vivo
[17] = Half life in dog; type: ADME, Canis lupus familiaris; conditions: in vivo
[18] = Half life in monkey; type: ADME, Macaca mulatta; conditions: rhesus monkey, in vivo
[19] = Half life in mouse; type: ADME, organism-based; conditions: in vivo
[20] = Half life in rat; type: ADME; conditions: in vivo
[21] = Oral bioavailability in dog; type: ADME, organism-based, Canis lupus familiaris; conditions: in vivo
[22] = Oral bioavailability in monkey; type: ADME, organism-based, Macaca mulatta; conditions: rhesus monkey, in vivo
[23] = Plasma clearance in human at 80 to 100 mg; type: ADME
[24] = Volume of distribution in human at 80 to 100 mg; type: ADME
[25] = Half life in human at 80 to 100 mg; type: ADME
[26] = biological target: Sodium channel protein type 5 subunit alpha (Homo sapiens, UniProt Q14524); assay: Inhibition of Nav1.5 (unknown origin)
Chain of Sodium channel protein type 5 subunit alpha (Q14524 whole entry): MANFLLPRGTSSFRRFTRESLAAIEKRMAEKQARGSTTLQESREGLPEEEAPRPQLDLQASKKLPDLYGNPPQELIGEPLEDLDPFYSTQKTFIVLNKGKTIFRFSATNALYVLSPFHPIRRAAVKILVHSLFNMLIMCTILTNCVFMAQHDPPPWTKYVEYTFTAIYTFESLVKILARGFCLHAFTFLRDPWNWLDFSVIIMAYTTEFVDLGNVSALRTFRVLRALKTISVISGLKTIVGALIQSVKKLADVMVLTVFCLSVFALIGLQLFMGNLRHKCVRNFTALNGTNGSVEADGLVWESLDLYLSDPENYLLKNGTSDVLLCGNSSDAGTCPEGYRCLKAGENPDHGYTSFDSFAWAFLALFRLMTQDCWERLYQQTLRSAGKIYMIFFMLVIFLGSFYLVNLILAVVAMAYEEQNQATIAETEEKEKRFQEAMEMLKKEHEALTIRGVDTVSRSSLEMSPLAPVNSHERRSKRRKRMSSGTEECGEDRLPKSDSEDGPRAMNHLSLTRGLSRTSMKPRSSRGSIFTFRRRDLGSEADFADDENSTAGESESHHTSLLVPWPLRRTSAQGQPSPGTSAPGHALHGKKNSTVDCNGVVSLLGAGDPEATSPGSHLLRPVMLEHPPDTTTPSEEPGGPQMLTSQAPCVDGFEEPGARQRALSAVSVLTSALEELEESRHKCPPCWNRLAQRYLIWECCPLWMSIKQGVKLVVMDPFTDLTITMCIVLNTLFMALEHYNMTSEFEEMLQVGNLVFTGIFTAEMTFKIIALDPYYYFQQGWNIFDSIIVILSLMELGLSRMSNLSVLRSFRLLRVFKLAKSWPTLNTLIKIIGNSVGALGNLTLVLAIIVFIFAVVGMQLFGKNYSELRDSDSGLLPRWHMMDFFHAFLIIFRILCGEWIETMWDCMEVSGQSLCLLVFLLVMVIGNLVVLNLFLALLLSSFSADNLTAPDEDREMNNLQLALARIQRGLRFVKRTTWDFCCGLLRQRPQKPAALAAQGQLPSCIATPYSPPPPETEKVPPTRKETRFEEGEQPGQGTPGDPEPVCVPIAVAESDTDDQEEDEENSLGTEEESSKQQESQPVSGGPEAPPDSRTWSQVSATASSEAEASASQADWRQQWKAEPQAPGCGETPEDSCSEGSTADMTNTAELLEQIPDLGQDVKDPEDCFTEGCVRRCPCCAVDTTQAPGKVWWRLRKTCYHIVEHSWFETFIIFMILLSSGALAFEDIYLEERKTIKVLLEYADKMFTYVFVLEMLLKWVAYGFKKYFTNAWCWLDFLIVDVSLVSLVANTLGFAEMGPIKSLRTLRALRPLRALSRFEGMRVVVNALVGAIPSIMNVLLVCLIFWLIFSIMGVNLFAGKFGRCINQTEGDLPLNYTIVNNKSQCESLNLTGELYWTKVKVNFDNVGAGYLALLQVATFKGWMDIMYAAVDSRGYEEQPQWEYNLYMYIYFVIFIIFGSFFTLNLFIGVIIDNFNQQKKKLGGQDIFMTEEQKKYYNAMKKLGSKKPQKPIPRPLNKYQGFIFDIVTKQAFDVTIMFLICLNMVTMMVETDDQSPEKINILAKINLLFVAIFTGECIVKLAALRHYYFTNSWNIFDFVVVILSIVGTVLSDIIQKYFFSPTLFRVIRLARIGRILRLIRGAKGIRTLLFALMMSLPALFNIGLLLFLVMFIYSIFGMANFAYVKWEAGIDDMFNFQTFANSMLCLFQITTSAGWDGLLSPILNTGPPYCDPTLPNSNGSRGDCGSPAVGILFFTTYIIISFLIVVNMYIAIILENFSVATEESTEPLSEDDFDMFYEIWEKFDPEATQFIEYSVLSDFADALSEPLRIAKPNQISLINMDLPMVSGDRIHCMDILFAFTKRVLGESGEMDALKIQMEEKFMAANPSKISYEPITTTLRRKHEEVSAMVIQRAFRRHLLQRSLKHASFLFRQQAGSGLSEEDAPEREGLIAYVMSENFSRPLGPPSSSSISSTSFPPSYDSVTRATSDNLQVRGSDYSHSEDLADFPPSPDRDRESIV

[27] = biological target: Voltage-dependent L-type calcium channel subunit alpha-1C (Homo sapiens, UniProt Q13936); assay: Inhibition of Cav1.2 (unknown origin)
Chain of Voltage-dependent L-type calcium channel subunit alpha-1C (Q13936 whole entry): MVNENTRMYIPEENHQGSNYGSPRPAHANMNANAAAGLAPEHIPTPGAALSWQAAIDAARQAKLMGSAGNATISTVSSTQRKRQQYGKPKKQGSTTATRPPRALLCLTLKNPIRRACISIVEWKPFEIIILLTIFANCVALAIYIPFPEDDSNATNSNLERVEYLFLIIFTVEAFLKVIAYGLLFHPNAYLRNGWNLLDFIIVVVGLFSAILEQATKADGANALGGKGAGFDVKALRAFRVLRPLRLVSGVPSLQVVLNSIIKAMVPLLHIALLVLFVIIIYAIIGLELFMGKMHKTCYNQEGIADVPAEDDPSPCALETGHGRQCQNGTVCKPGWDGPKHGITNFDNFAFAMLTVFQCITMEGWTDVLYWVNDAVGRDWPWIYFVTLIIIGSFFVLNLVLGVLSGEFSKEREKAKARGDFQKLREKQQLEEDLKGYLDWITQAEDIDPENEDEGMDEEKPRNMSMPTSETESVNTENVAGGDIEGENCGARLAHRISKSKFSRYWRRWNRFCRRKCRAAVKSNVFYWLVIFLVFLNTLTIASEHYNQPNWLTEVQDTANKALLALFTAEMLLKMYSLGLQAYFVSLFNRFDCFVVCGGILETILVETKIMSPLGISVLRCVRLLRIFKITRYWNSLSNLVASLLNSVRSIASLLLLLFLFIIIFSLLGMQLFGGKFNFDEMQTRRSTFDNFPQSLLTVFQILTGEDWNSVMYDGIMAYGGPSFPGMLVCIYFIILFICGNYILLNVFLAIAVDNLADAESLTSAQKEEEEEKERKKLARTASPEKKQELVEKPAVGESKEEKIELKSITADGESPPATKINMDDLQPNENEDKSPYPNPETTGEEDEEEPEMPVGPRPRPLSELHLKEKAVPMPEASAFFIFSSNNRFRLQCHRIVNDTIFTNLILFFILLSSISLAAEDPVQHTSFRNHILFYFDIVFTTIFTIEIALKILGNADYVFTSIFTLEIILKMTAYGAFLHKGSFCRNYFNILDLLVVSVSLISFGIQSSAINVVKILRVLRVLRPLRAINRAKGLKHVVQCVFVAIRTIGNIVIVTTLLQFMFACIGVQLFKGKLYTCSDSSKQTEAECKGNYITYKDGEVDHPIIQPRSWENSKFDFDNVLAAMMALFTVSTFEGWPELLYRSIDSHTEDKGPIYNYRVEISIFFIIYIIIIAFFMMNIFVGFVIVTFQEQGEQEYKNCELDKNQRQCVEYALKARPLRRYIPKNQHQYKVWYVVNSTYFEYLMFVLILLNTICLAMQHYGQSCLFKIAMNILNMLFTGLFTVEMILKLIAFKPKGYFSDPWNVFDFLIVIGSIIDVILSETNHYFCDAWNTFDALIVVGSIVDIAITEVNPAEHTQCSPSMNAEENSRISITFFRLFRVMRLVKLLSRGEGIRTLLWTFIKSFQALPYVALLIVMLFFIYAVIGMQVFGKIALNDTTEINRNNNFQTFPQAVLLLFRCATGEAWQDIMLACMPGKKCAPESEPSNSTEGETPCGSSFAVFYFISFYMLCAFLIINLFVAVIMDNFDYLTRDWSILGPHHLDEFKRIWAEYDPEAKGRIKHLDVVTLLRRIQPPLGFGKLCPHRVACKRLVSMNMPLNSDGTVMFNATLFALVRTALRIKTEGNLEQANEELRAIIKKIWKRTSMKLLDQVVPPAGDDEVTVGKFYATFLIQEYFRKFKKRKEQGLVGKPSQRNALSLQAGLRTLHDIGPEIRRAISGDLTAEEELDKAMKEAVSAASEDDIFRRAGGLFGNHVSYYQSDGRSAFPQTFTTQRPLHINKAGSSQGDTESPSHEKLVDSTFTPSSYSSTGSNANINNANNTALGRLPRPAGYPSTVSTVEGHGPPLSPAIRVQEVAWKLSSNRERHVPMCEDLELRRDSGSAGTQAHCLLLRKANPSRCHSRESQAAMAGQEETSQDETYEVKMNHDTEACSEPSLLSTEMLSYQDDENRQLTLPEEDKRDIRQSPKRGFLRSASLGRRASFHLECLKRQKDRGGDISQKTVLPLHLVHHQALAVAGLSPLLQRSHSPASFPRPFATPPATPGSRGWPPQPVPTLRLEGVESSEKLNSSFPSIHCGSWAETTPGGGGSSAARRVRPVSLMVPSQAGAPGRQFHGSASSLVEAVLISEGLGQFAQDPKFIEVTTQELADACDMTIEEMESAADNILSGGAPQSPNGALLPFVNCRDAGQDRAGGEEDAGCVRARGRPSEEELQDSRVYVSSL

[28] = AUC (0 to infinity) in human at 5 to 120 mg,po; type: ADME; conditions: in vivo
[29] = Half life in human at 5 to 120 mg,po; type: ADME; conditions: in vivo
[30] = AUC in human at 5 to 120 mg,po in fed condition; type: ADME; conditions: in vivo
[31] = AUC in human at 5 to 120 mg,po in fast condition; type: ADME; conditions: in vivo
[32] = Half life in human at 5 to 120 mg,po in fed condition; type: ADME; conditions: in vivo
[33] = Half life in human at 5 to 120 mg,po in fast condition; type: ADME; conditions: in vivo
Plasmodium falciparum [34] = assay: Ex-vivo antimalarial activity against Plasmodium falciparum serum derived from 40 mg, po treated human after 144 hrs; type: functional, organism-based

With `CS(=O)(=O)c1ccc(-c2cnc(N)c(-c3ccc(C(F)(F)F)nc3)c2)cc1` [MMV-048] the EC50 (Plasmodium cynomolgi [1]) was 0.064 µM, the EC50 (Plasmodium cynomolgi [2]) was 0.061 µM and the IC50 [3] was 0.0034 µM. It also gave an EC50 (Plasmodium cynomolgi [4]) of over 10 µM, an EC50 (Plasmodium falciparum [5]) of 0.214 µM and an EC50 (Plasmodium falciparum [6]) of 0.14 µM. It also gave an EC50 (Plasmodium falciparum [7]) of 0.09 µM, an EC50 (Plasmodium falciparum [8]) of 0.111 µM and an Activity (Plasmodium falciparum [9]) of over 25%. The Activity (Plasmodium berghei) was 98 - 99.5%, the ED90 (Plasmodium falciparum [10]) was 0.57 mg/kg and the ED99 (Plasmodium falciparum [10]) was 1.1 mg/kg. For the same compound, the clearance [11] was 0.6 mL/min/kg, the clearance [12] was 3 mL/min/kg and the clearance [13] was 6.5 mL/min/kg. It also gave a Vd [14] of 1.3 to 3 L/kg, a Vd [15] of 1.3 to 3 L/kg and a Vd [16] of 1.3 to 3 L/kg. For the same compound, the half-life [17] was 58 h, the half-life [18] was 56 h and the half-life [19] was 5.6 h. The half-life [20] was 9.2 h, the bioavailability [21] was 45% and the bioavailability [22] was 74%. It also gave a clearance [23] of 0.333 mL/min, a Vd [24] of 2.8 L/kg and a half-life [25] of 90 h. It also gave an IC50 [26] of over 10 µM, an IC50 [27] of over 10 µM and an AUC(0-inf) [28] of 2140 to 156000 ng·h/mL. It also gave a half-life [29] of 163 to 252 h, an AUC [30] of 29000 ng·h/mL and an AUC [31] of 21000 ng·h/mL. For the same compound, the half-life [32] was 210 h, the half-life [33] was 193 h and the EC50 (Plasmodium falciparum [34]) was 0.024 µM.
